As a reminder, the Ki is the equilibrium dissociation constant of an inhibitor or competing ligand from its target. What is called efflux ratio is a quotient of directional permeabilities that is used to spot active efflux.

This note sets out measurements from US10285989B2, “Pyrimidinone amide compounds as PDE2 inhibitors” (Merck Sharp & Dohme Corp., priority 2015, dated 2019).

Like-named read-outs stand apart in the source and are kept apart here.

In one series the target is human PDE2A1 (Homo sapiens (Human), UniProt O00408). In words: PDE2 IMAP FP inhibition assay, human PDE2A1 (selectivity panel format). The format is biochemical. The method, boiled down: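 Enzyme dosed to give about 20% substrate turnover acts for 60 min at room temperature on 50 nM FAM-cAMP plus 1000 nM cGMP (Tris pH 7.2, MgCl2, DTT, Tween-20 buffer). IMAP binding solution then stops the reaction; after 1 h, polarization is measured from parallel and perpendicular fluorescence.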
Chain of human PDE2A1 (O00408 other isoform, or with tags, fused parts or gaps): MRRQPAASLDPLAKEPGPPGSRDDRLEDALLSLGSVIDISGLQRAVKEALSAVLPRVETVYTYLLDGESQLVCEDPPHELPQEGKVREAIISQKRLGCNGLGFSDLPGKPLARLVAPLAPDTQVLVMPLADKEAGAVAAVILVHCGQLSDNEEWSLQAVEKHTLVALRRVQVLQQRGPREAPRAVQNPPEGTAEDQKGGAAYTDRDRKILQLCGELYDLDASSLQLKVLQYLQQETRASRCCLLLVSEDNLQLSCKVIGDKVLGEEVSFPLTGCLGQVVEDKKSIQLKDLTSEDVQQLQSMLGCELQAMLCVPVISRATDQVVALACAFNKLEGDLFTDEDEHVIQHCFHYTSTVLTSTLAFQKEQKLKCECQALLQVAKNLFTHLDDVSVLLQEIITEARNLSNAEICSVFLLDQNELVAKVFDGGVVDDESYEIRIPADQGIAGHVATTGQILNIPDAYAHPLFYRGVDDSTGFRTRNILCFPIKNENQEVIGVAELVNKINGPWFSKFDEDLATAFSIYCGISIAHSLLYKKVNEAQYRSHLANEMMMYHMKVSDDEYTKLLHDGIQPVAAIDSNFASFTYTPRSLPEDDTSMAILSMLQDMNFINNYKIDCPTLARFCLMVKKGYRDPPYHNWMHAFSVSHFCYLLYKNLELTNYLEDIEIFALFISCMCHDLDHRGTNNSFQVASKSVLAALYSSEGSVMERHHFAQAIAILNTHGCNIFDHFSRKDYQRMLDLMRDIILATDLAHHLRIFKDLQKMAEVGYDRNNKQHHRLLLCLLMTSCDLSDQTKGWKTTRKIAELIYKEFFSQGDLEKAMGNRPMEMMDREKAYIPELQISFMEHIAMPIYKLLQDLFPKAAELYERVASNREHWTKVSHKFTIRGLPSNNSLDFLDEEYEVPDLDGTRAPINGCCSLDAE

The target of series [1] is P-glycoprotein (P-gp, rat Mdr1a) (Rattus norvegicus, UniProt Q6PSM0). The experiment in a line: P-gp transport, experimental BA/AB ratio, rat LLC-Mdr1a. Type of series: in vitro ADME. As to conditions: LLC-PK1; rat LLC-Mdrla; 1 μM substrate concentration. The text has this:
(§1) See Doan et al. “Passive permeability and P-glycoprotein-mediated efflux differentiate central nervous system (CNS) and non-CNS marketed drugs”, J. Pharm. Exper. […] Desirable human BA/AB ratio is less than 2.0. […] See, for example, Desai, et al. Integration of in Silico and in Vitro Tools for Scaffold Optimization during Drug Discovery: Predicting P-glycoprotein Efflux” Mol. Pharmac.

A further series has as its target Rhesus PDE2A3 (Macaca mulatta, UniProt B3VTJ2). The experiment in a line: PDE2 fluorescence polarization (IMAP FP) inhibition assay, rhesus PDE2A3. The format is biochemical, rhesus macaque.
The target in the next series is P-glycoprotein (P-gp) (Homo sapiens (Human), UniProt P08183). In words: P-gp transport, experimental BA/AB ratio, human. The conditions noted are these: LLC-PK1, 1 μM substrate concentration. Type of series: in vitro ADME.
Chain of P-glycoprotein (P-gp) (P08183 whole entry): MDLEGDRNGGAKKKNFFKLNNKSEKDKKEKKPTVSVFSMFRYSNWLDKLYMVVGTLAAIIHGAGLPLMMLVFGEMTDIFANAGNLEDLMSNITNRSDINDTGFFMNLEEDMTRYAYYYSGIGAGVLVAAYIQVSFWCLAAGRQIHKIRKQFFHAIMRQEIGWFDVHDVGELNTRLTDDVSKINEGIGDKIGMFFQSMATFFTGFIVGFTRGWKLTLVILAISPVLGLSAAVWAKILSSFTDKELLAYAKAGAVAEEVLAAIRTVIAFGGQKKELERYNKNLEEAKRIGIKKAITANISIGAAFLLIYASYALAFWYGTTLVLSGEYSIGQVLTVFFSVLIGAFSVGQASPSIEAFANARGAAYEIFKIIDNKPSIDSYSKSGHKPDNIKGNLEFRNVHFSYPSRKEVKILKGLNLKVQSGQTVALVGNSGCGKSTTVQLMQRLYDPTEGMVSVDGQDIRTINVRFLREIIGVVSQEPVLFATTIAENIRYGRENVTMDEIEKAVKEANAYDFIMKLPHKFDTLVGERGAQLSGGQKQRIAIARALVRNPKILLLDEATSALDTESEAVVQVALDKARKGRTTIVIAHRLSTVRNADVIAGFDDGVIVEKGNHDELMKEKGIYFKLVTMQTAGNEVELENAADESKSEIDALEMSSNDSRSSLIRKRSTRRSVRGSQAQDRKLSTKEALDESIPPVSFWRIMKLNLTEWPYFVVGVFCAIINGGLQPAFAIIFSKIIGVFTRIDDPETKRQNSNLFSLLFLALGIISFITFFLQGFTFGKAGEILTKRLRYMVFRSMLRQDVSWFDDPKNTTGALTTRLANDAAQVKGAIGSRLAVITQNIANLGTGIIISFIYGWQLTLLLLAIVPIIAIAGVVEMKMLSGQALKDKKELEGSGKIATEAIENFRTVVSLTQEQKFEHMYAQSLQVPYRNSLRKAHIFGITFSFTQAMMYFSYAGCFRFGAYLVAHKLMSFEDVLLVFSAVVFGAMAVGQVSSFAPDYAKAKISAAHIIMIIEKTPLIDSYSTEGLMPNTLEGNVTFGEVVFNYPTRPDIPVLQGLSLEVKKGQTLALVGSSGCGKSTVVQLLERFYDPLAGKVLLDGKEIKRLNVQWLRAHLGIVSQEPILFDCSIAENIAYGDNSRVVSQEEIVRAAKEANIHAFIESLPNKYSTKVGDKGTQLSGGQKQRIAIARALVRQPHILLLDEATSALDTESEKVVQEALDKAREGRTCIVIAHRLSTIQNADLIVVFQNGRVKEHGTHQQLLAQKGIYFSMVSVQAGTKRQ
Text: as §1

Where [2] appears, read: Lab A, read-out: Human PDE2 Ki (nM) - Lab A.
Setting [3] is: Lab A, read-out: Rhesus PDE2 Ki (nM) - Lab A.
The mark [4] stands for this setting: Lab B, read-out: Human PDE2 Ki (nM) - Lab B.
[5] abbreviates: Lab B, read-out: Rhesus PDE2 Ki (nM) - Lab B.

Chain of Rhesus PDE2A3 (B3VTJ2 1-941): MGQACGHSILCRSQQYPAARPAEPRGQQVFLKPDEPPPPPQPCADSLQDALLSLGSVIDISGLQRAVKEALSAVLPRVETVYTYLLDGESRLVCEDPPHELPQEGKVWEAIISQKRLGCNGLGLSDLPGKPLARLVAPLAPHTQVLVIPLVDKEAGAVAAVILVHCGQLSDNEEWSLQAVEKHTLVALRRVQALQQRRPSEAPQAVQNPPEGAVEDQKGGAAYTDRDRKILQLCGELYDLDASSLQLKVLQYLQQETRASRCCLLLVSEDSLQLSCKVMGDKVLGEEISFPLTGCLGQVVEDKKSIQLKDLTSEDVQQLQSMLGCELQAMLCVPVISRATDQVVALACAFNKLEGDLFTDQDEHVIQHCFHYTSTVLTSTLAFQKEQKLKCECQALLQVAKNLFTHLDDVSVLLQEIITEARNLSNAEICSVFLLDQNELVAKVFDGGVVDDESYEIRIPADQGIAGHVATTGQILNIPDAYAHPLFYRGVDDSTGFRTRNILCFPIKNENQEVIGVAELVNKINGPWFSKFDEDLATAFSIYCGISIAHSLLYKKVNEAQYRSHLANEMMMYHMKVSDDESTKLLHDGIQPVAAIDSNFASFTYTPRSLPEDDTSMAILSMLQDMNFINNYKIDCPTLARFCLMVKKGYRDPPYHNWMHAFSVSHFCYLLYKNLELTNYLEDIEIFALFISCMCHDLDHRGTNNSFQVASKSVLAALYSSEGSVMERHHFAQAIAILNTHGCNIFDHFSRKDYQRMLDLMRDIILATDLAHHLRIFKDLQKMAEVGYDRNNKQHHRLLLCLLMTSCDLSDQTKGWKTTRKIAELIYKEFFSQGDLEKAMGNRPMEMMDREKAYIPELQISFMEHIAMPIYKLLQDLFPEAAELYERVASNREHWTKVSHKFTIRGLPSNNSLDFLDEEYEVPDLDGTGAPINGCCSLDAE
Chain of P-glycoprotein (P-gp, rat Mdr1a) (Q6PSM0 1-1272): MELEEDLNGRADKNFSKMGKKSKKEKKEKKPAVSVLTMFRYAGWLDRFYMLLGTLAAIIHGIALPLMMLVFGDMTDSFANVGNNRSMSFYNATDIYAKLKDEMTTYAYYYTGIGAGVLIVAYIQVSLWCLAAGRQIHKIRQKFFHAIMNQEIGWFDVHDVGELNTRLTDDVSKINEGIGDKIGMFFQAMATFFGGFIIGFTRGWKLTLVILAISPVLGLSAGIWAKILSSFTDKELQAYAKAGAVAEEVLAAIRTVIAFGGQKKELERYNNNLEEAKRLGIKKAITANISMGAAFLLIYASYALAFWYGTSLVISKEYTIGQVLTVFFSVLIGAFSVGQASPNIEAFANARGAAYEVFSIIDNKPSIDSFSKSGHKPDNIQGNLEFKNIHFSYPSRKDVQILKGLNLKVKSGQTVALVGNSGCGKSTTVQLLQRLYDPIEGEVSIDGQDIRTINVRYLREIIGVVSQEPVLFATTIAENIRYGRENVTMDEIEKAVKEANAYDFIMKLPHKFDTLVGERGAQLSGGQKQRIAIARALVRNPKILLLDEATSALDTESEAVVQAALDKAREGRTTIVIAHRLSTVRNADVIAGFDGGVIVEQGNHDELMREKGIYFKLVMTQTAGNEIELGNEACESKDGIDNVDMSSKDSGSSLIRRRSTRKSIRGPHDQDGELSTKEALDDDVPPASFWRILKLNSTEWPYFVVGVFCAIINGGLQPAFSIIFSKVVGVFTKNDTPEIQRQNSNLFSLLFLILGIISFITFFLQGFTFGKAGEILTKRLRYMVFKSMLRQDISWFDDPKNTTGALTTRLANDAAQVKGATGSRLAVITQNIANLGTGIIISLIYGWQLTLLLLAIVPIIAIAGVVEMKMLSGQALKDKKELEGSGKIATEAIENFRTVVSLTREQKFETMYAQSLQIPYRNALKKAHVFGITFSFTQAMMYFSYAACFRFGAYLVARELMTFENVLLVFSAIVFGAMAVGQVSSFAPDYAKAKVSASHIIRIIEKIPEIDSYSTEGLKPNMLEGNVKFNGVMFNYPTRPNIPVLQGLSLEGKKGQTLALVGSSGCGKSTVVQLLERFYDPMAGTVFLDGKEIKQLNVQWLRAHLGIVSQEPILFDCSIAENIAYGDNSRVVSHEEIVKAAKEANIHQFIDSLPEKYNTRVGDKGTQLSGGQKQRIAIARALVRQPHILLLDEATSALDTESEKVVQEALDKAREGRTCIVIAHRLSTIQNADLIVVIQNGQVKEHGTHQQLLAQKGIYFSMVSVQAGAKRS

On to `CCCOc1nc(C(=O)N[C@H](C)c2ccc(C(F)(F)F)cc2)cc(=O)[nH]1` [Example 178, 6-oxo-2-propoxy-N-{(1R)-1-[4-(trifluoromethyl)phenyl]ethyl}-1,6-dihydropyrimidine-4-carboxamide], for which the Ki was 52 nM at human PDE2A1 (setting [2]) and 58 nM at Rhesus PDE2A3 (setting [3]). Moreover, the efflux ratio at 1 μM in series [1] is 1; on P-glycoprotein (P-gp), 0.4.
With `CC(C)[C@@H](NC(=O)c1cc(=O)[nH]c(N2CC(F)C2)n1)c1ccc(OC(F)(F)F)c(F)c1` [Example 164, 2-(3-fluoroazetidin-1-yl)-N-{(1R)-1-[3-fluoro-4-(trifluoromethoxy)phenyl]-2-methylpropyl}-6-oxo-1,6-dihydropyrimidine-4-carboxamide], the Ki at human PDE2A1 (setting [4]) came to 3.9 nM; at Rhesus PDE2A3 (setting [3]), 2.4 nM; on Rhesus PDE2A3 (setting [5]), 4 nM. Moreover, the figures for the efflux ratio at 1 μM (in series [1]; on P-glycoprotein (P-gp)) were 7.5 and 2.6, respectively.
Consider `CC(C)[C@@H](NC(=O)c1cc(=O)[nH]c(N2CCCC2)n1)c1ccc(C(F)(F)F)cc1` [Example 95, N-{(1R)-2-methyl-1-[4-(trifluoromethyl)phenyl]propyl}-6-oxo-2-pyrrolidin-1-yl-1,6-dihydropyrimidine-4-carboxamide], for which the Ki at human PDE2A1 (setting [2]) came out at 0.18 nM; at Rhesus PDE2A3 (setting [3]), 0.39 nM. The efflux ratio at 1 μM in series [1] is 4.5; at P-glycoprotein (P-gp), 1.
With `CC(C)[C@@H](NC(=O)c1cc(=O)[nH]c(N2CCCC2)n1)c1ccc(SC(F)(F)F)cc1` [Example 147, N-[(1R)-2-methyl-1-{4-[(trifluoromethyl)sulfanyl]phenyl}propyl]-6-oxo-2-pyrrolidin-1-yl-1,6-dihydropyrimidine-4-carboxamide], the inhibition constant (Ki) at human PDE2A1 (setting [4]) came out at 0.26 nM; on Rhesus PDE2A3 (setting [3]) it was 0.19 nM; on Rhesus PDE2A3 (setting [5]), 0.15 nM. The efflux ratio at 1 μM in series [1] was determined as 5.9; on P-glycoprotein (P-gp) it was 0.7.
For `CN(C)c1nc(C(=O)N[C@@H](c2ccc(OC(F)(F)F)c(F)c2)C(C)(C)C)cc(=O)[nH]1` [Example 101, 2-(dimethylamino)-N-{(1R)-1-[3-fluoro-4-(trifluoromethoxy)phenyl]-2,2-dimethylpropyl}-6-oxo-1,6-dihydropyrimidine-4-carboxamide], the Ki at human PDE2A1 (setting [4]) stood at 0.12 nM; at Rhesus PDE2A3 (setting [5]), 0.14 nM. Further, the efflux ratio at 1 μM in series [1] worked out at 10.1; at P-glycoprotein (P-gp) it was 1.7.
In the same order, the values of `CN(C)c1nc(C(=O)N[C@@H](c2ccc(C3CC3)cc2)C(C)(C)C)cc(=O)[nH]1` [Example 35, N-[(1R)-1-(4-cyclopropylphenyl)-2,2-dimethylpropyl]-2-(dimelhylamino)-6-oxo-1,6-dihydropyrimidine-4-carboxamide] are 0.11 nM, 0.12 nM, 3.6 and 0.5.
Turning to `CN(C)c1nc(C(=O)N[C@@H](c2ccc(OC(F)(F)F)cc2)C(C)(C)C)cc(=O)[nH]1` [Example 100, 2-(dimethylamino)-N-{(1R)-2,2-dimethyl-1-[4-(trifluoromethoxy)phenyl]propyl}-6-oxo-1,6-dihydropyrimidine-4-carboxamide], the Ki was 0.21 nM at human PDE2A1 (setting [4]) and 0.17 nM at Rhesus PDE2A3 (setting [5]). For the same molecule, the efflux ratio at 1 μM came to 2.9 in series [1] and 0.7 on P-glycoprotein (P-gp).
For `CC(C)[C@@H](NC(=O)c1cc(=O)[nH]c(N2CC[C@H](F)C2)n1)c1ccc(SC(F)(F)F)c(F)c1` [Example 165, 2-[(3S)-3-fluoropyrrolidin-1-yl]-N-[(1R)-1-{3-fluoro-4-[(trifluoromethyl)sulfanyl]phenyl}-2-methylpropyl]-6-oxo-1,6-dihydropyrimidine-4-carboxamide], the inhibitory constant (Ki) at human PDE2A1 (setting [4]) stood at 0.45 nM; at Rhesus PDE2A3 (setting [3]), 0.33 nM; at Rhesus PDE2A3 (setting [5]), 0.5 nM. The efflux ratio at 1 μM in series [1] came out at 20.1; on P-glycoprotein (P-gp), 3.6.
For the molecule `CN(C)c1nc(C(=O)N[C@@H](c2ccc(C3CC3)cc2)C2(C)CC2)cc(=O)[nH]1` [Example 71, N-[(R)-(4-cyclopropylphenyl)(1-methylcyclopropyl)methyl]-2-(dimethylamino)-6-oxo-1,6-dihydropyrimidine-4-carboxamide], the Ki came to 0.21 nM at human PDE2A1 (setting [4]) and 0.23 nM at Rhesus PDE2A3 (setting [5]). Moreover, the efflux ratio at 1 μM in series [1] amounted to 4.8; at P-glycoprotein (P-gp) it was 0.3.
In the same order, the values of `CN(C)c1nc(C(=O)N[C@@H](c2ccc(C(F)(F)F)cc2F)C(C)(C)C)cc(=O)[nH]1` [Example 37, 2-(dimethylamino)-N-{(1R)-1-[2-fluoro-4-(trifluoromethyl)phenyl]-2,2-dimethylpropyl}-6-oxo-1,6-dihydropyrimidine-4-carboxamide] are 0.13 nM, 0.11 nM, 1.2 and 1.
In the case of `CN(C)c1nc(C(=O)N[C@@H](c2ccc(C(F)F)cc2)C2(C)CC2)cc(=O)[nH]1` [Example 61, N-[(R)-[4-(difluoromethyl)phenyl](1-methylcyclopropyl)methyl]-2-(dimethylamino)-6-oxo-1,6-dihydropyrimidine-4-carboxamide], the inhibitory constant (Ki) was determined as 0.75 nM on human PDE2A1 (setting [4]) and 0.82 nM on Rhesus PDE2A3 (setting [5]). Besides, the efflux ratio at 1 μM worked out at 12.3 in series [1] and 1.6 at P-glycoprotein (P-gp).
Take `O=C(N[C@@H](c1ccc(OC(F)(F)F)cc1)C1CC1)c1cc(=O)[nH]c(N2CCCC2)n1` [Example 114, N-{(R)-cyclopropyl[4-(trifluoromethoxy)phenyl]methyl}-6-oxo-2-pyrrolidin-1-yl-1,6-dihydropyrimidine-4-carboxamide]: the inhibition constant (Ki) on human PDE2A1 (setting [4]) came out at 1.5 nM; on Rhesus PDE2A3 (setting [3]), 0.94 nM; at Rhesus PDE2A3 (setting [5]), 1.5 nM. Also, the efflux ratio at 1 μM is 4 in series [1] and 0.5 at P-glycoprotein (P-gp).
On to `CN(C)c1nc(C(=O)N[C@@H](c2ccc(C3CC3)c(F)c2)C(C)(C)C)cc(=O)[nH]1` [Example 58, N-[(1R)-1-(4-cyclopropyl-3-fluorophenyl)-2,2-dimethylpropyl]-2-(dimethylamino)-6-oxo-1,6-dihydropyrimidine-4-carboxamide], for which the Ki on human PDE2A1 (setting [4]) was found to be 0.03 nM; on Rhesus PDE2A3 (setting [5]) it was 0.1 nM. The results for the efflux ratio at 1 μM (in series [1]; on P-glycoprotein (P-gp)) were 4.7 and 1.3, respectively.
As to `CC(C)[C@@H](NC(=O)c1cc(=O)[nH]c(N)n1)c1ccc(OC(F)(F)F)c(F)c1` [Example 152, 2-amino-N-{(1R)-1-[3-fluoro-4-(trifluoromethoxy)phenyl]-2-methylpropyl}-6-oxo-1,6-dihydropyrimidine-4-carboxamide], the inhibition constant (Ki) came to 19 nM at human PDE2A1 (setting [2]) and 33 nM on Rhesus PDE2A3 (setting [3]). In addition, the efflux ratio at 1 μM in series [1] worked out at 29.2; on P-glycoprotein (P-gp), 11.6.
The corresponding values for `C[C@@H](NC(=O)c1cc(=O)[nH]c(N(C)C)n1)c1ccc(SC(F)(F)F)c(F)c1` [Example 96, 2-(dimethylamino)-N-[(1R)-1-{3-fluoro-4-[(trifluoromethyl)sulfanyl]phenyl}ethyl]-6-oxo-1,6-dihydropyrimidine-4-carboxamide] are 0.2 nM, 0.36 nM, 2.5 and 0.5.
The corresponding values for `CC(C)OCCCOc1nc(C(=O)NC(C)c2ccc(C(F)(F)F)cc2)cc(=O)[nH]1` (stereo not shown) [Example 183, 2-[3-(1-methylethoxy)propoxy]-6-oxo-N-{1-[4-(trifluoromethyl)phenyl]ethyl}-1,6-dihydro pyrimidine-4-carboxamide] are 23 nM, 29 nM, 7.9 and 1.2.
Consider `CN(C)c1nc(C(=O)NC2(c3ccc(C(F)(F)F)c(F)c3)CC2)cc(=O)[nH]1` [Example 94, 2-(dimethylamino)-N-{1-[3-fluoro-4-(trifluoromethyl)phenyl]cyclopropyl}-6-oxo-1,6-dihydropyrimidine-4-carboxamide], for which the Ki was determined as 0.9 nM on human PDE2A1 (setting [2]), 0.96 nM at human PDE2A1 (setting [4]), 1.2 nM at Rhesus PDE2A3 (setting [3]) and 0.8 nM on Rhesus PDE2A3 (setting [5]). Moreover, the efflux ratio at 1 μM in series [1] was determined as 2.6; at P-glycoprotein (P-gp), 0.5.
In the case of `CN(C)c1nc(C(=O)N[C@@H](c2ccc(C(F)(F)F)cc2)C(C)(C)C)cc(=O)[nH]1` [Example 2, (R)—N-(2,2-dimethyl-1-(4-(trifluoromethyl)phenyl)propyl)-2-(dimethylamino)-6-oxo-1,6-dihydropyrimidine-4-carboxamide], the Ki on human PDE2A1 (setting [4]) amounted to 0.15 nM; on Rhesus PDE2A3 (Rhesus PDE2 Ki (nM) - Lab B, Lab B) it was 0.11 nM. Besides, the efflux ratio at 1 μM in series [1] worked out at 2.6; at P-glycoprotein (P-gp) it was 0.6.
For the molecule `C[C@@H](NC(=O)c1cc(=O)[nH]c(N2CC(F)C2)n1)c1ccc(C(F)(F)F)cc1` [Example 23, 2-(3-Fluoroazetidin-1-yl)-6-oxo-N-{(1R)-1-[4-(trifluoromethyl)phenyl]ethyl}-1,6-dihydropyrimidine-4-carboxamide], the Ki at human PDE2A1 (setting [2]) was found to be 16 nM; at Rhesus PDE2A3 (setting [3]), 27 nM. The efflux ratio at 1 μM was determined as 7.6 in series [1] and 1.4 on P-glycoprotein (P-gp).
